ChEMBL document CHEMBL4043168, “The design and SAR of a novel series of 2-aminopyridine based LRRK2 inhibitors” (Bioorg Med Chem Lett, 2017)

Key:
[1] = biological target: Mitogen-activated protein kinase 10 (Homo sapiens) (UniProt P53779); assay: Inhibition of JNK3 conserved Lys2 (DLKPSNIVVK) in human PBMC at 0.1 uM
[2] = biological target: Mitogen-activated protein kinase 8 (Homo sapiens) (UniProt P45983); assay: Inhibition of JNK1 conserved Lys2 (DLKPSNIVVK) in human PBMC at 0.1 uM
[3] = biological target: T1, Serine/threonine-protein kinase 3 (Homo sapiens) (UniProt Q13188); assay: Inhibition of MST2 conserved Lys2 (DIKAGNILLNTEGHAK) in human PBMC at 1 uM
T1 sequence (whole entry): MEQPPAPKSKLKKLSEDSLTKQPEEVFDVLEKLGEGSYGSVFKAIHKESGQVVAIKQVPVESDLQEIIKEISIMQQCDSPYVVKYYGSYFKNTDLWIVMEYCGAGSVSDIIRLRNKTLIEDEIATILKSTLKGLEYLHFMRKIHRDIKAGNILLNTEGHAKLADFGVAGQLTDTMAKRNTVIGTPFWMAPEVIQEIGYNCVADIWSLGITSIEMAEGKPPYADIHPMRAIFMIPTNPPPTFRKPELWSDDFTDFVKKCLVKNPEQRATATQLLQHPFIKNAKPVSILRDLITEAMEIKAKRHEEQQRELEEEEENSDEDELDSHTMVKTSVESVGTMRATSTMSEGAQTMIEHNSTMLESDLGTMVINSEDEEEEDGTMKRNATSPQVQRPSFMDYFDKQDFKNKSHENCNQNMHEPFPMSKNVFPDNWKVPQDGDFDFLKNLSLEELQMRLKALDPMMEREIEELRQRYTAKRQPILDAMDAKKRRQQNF

[4] = biological target: Cyclin-dependent kinase 1 (Homo sapiens) (UniProt P06493); assay: Inhibition of CDC2 labeling at conserved Lys2 (DLKPQNLLIDDKGTIK) in human PBMC at 0.1 uM
[5] = biological target: Cyclin-dependent kinase 5 (Homo sapiens) (UniProt Q00535); assay: Inhibition of CDK5 labeling at conserved Lys1 (NRETHEIVALKR) in human PBMC at 0.1 uM
[6] = biological target: Serine/threonine-protein kinase Nek1 (Homo sapiens) (UniProt Q96PY6); assay: Inhibition of NEK1 conserved Lys2 (DIKSQNIFLTK) in human PBMC at 0.1 uM
[7] = biological target: Inhibitor of nuclear factor kappa-B kinase subunit beta (Homo sapiens) (UniProt O14920); assay: Inhibition of IKKb conserved Lys2 (DLKPENIVLQQGEQR) in human PBMC at 0.1 uM
[8] = biological target: Tyrosine-protein kinase CSK (Homo sapiens) (UniProt P41240); assay: Inhibition of CSK labeling at conserved Lys2 (VSDFGLTKEASSTQDTGKLPVK) in human PBMC at 0.1 uM
[9] = biological target: Calcium/calmodulin-dependent protein kinase type II subunit gamma (Homo sapiens) (UniProt Q13555); assay: Inhibition of CaMK2g labeling at conserved Lys2 (DLKPENLLLASK) in human PBMC at 1 uM
[10] = biological target: Serine/threonine-protein kinase PLK1 (Homo sapiens) (UniProt P53350); assay: Inhibition of PLK1 conserved Lys1 (CFEISDADTKEVFAGKIVPK) in human PBMC at 0.1 uM
[11] = biological target: Ribosomal protein S6 kinase alpha-2 (Homo sapiens) (UniProt Q15349); assay: Inhibition of RSK3 domain1 conserved Lys2 (DLKPENILLDEEGHIK) in human PBMC at 0.1 uM
[12] = biological target: Serine/threonine-protein kinase WNK4 (Homo sapiens) (UniProt Q96J92); assay: Inhibition of Wnk4 activation Loop (IGDLGLATLKR) in human PBMC at 1 uM
[13] = biological target: Dual specificity mitogen-activated protein kinase kinase 1 (Homo sapiens) (UniProt Q02750); assay: Inhibition of MAP2K1 conserved Lys2 (IMHRDVKPSNILVNSR) in human PBMC at 0.1 uM
[14] = Inhibition of GCK conserved Lys2 (DIKGANLLLTLQGDVK) in human PBMC at 1 uM
[15] = biological target: NUAK family SNF1-like kinase 2 (Homo sapiens) (UniProt Q9H093); assay: Inhibition of NuaK2 conserved Lys1 (LVAIKSIR) in human PBMC at 1 uM
[16] = biological target: T2, Tyrosine-protein kinase JAK3 (Homo sapiens) (UniProt P52333); assay: Inhibition of JAK3 domain2 activation Loop (IADFGLAKLLPLDKDYYVVR) in human PBMC at 0.1 uM
T2 sequence (whole entry): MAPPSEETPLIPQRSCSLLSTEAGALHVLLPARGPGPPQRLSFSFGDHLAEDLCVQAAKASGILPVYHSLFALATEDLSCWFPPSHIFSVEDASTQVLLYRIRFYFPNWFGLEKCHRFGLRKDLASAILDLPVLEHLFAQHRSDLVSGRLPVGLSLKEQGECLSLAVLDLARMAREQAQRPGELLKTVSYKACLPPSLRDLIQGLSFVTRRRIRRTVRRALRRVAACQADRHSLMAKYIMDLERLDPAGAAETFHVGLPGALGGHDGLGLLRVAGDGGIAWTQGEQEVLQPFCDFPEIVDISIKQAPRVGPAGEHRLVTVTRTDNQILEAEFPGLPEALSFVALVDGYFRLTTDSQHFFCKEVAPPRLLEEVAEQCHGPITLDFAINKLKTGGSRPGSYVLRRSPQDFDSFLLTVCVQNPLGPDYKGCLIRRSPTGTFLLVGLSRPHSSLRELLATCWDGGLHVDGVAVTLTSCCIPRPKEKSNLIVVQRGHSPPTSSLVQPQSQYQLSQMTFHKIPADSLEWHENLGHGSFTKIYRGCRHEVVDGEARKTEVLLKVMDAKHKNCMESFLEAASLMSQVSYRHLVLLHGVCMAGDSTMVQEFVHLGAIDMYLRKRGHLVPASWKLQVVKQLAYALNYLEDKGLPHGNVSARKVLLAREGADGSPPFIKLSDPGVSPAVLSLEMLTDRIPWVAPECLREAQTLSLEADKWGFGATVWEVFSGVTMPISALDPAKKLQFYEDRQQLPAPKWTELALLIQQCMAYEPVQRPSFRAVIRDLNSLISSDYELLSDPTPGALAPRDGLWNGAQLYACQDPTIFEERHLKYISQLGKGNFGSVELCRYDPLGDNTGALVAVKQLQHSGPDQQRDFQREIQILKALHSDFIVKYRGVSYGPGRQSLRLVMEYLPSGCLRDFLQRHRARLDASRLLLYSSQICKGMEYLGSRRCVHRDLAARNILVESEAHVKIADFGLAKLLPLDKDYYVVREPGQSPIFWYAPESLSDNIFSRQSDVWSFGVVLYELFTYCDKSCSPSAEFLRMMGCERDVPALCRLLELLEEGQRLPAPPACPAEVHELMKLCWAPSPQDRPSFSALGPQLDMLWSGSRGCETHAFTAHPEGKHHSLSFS

Sequence of Cyclin-dependent kinase 5 (Homo sapiens) (Q00535 whole entry, looked up): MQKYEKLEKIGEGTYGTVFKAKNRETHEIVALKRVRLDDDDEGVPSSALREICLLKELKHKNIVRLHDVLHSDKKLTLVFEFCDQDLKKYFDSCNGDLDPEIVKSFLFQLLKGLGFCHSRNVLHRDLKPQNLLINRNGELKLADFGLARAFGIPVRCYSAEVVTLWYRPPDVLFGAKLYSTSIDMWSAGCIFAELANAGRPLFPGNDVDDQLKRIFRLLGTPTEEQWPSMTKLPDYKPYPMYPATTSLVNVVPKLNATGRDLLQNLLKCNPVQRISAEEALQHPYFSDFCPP
Sequence of Mitogen-activated protein kinase 8 (Homo sapiens) (P45983 whole entry): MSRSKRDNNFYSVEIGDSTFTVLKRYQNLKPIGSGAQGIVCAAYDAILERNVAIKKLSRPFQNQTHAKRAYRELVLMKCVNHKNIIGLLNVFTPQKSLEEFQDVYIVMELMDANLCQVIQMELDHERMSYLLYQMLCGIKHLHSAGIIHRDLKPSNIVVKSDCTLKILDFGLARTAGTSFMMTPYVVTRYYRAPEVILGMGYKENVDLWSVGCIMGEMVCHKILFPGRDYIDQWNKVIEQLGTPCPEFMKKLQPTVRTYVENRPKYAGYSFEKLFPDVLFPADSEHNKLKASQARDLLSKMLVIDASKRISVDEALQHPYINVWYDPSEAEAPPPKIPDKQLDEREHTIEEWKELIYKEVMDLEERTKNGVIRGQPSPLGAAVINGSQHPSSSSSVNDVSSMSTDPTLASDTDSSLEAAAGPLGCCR
Sequence of Mitogen-activated protein kinase 10 (Homo sapiens) (P53779 whole entry): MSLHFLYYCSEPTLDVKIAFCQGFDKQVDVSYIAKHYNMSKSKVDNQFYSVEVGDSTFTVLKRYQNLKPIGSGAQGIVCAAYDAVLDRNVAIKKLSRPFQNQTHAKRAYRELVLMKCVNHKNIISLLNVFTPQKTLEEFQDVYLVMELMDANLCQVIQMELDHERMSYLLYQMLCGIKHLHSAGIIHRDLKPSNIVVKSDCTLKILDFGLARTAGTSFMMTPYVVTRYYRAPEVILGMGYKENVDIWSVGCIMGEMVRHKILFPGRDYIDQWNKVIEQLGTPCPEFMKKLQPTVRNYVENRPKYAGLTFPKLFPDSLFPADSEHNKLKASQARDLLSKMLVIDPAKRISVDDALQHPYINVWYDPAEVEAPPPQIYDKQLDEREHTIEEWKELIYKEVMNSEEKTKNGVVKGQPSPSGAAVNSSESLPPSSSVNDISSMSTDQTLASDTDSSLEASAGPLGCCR
Sequence of Serine/threonine-protein kinase WNK4 (Homo sapiens) (Q96J92 whole entry): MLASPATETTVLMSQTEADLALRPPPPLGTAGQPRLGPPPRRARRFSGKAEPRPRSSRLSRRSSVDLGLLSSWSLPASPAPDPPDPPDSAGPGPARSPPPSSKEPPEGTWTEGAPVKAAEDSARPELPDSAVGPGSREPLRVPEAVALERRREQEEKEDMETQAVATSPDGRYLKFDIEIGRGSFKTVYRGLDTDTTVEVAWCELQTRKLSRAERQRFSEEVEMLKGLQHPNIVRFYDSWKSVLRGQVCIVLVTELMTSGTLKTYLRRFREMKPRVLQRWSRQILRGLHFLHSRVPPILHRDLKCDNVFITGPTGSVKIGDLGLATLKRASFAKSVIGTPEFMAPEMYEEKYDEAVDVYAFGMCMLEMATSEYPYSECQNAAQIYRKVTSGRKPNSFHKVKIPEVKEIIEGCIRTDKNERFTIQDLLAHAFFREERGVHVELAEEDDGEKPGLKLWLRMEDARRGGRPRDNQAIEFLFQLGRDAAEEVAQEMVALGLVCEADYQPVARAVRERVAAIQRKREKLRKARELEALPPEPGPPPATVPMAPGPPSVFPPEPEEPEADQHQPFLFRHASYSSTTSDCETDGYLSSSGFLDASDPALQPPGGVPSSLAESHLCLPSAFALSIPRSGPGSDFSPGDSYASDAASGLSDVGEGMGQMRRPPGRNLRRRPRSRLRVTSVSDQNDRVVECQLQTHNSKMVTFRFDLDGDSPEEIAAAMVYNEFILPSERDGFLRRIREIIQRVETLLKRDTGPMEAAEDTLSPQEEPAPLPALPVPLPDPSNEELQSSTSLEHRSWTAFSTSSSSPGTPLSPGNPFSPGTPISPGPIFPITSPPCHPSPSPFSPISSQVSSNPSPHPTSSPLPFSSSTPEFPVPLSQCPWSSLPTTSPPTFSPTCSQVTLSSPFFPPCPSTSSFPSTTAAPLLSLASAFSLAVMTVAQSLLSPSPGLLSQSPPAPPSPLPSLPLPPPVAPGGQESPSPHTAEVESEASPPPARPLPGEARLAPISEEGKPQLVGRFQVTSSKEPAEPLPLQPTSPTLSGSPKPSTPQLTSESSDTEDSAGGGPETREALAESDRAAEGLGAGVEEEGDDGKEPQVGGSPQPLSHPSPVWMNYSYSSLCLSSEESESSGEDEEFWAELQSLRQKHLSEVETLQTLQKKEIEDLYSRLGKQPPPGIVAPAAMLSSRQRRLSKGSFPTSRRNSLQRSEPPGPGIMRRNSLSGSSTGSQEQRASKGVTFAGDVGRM
Sequence of Cyclin-dependent kinase 1 (Homo sapiens) (P06493 whole entry, looked up): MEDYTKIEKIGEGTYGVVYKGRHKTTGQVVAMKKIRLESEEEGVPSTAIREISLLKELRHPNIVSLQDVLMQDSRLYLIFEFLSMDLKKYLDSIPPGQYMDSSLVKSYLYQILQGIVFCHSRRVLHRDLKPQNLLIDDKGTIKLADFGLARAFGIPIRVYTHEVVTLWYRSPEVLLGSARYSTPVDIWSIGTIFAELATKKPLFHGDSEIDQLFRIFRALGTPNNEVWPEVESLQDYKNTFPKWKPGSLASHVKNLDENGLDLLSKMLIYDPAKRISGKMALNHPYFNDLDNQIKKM
Sequence of NUAK family SNF1-like kinase 2 (Homo sapiens) (Q9H093 whole entry, the tested form may be a part): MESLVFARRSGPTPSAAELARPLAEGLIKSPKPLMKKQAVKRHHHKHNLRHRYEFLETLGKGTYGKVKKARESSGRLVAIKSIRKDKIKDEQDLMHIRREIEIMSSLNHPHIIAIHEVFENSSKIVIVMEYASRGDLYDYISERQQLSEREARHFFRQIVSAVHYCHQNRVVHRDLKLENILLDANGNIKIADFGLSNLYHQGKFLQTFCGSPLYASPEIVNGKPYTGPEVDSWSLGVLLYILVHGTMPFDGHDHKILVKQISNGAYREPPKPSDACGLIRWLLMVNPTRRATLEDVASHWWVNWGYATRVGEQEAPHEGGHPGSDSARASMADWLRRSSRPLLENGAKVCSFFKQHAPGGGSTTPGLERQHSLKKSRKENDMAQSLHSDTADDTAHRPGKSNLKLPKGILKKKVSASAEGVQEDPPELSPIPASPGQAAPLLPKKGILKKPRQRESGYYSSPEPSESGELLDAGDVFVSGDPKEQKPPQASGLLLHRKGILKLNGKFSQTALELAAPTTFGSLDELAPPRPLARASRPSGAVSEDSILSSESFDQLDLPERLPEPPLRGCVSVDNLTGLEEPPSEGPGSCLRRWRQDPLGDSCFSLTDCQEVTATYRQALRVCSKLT
Sequence of Ribosomal protein S6 kinase alpha-2 (Homo sapiens) (Q15349 whole entry, the tested form may be a part): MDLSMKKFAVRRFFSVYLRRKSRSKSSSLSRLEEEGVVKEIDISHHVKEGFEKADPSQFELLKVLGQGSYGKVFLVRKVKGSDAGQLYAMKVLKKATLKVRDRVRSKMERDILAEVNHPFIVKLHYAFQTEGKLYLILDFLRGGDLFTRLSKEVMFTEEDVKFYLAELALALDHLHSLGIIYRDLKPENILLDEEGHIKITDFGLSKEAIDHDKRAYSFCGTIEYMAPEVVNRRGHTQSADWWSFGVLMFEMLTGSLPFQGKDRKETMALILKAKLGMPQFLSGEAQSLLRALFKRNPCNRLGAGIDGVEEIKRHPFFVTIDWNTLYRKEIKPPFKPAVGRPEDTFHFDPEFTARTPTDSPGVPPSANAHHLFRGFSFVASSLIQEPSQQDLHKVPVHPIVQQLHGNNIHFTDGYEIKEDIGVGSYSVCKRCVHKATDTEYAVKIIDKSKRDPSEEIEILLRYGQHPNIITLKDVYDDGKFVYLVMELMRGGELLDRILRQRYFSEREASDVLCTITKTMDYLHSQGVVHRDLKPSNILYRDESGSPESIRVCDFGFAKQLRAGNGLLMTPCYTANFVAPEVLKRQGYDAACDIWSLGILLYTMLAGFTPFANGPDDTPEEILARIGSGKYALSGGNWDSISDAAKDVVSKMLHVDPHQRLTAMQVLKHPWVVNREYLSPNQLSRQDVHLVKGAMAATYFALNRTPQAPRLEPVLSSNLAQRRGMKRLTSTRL
Sequence of Dual specificity mitogen-activated protein kinase kinase 1 (Homo sapiens) (Q02750 whole entry): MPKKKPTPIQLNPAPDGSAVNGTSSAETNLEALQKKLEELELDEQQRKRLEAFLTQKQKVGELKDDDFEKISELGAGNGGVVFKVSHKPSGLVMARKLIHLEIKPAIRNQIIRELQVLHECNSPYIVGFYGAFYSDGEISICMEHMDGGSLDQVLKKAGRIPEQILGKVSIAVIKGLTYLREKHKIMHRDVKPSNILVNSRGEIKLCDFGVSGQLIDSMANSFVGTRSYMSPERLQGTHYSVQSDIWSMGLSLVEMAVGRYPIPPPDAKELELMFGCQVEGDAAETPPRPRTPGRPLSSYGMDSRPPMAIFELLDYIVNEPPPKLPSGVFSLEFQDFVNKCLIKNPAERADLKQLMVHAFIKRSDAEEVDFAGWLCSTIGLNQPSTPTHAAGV
Sequence of Tyrosine-protein kinase CSK (Homo sapiens) (P41240 2-450 limits assumed): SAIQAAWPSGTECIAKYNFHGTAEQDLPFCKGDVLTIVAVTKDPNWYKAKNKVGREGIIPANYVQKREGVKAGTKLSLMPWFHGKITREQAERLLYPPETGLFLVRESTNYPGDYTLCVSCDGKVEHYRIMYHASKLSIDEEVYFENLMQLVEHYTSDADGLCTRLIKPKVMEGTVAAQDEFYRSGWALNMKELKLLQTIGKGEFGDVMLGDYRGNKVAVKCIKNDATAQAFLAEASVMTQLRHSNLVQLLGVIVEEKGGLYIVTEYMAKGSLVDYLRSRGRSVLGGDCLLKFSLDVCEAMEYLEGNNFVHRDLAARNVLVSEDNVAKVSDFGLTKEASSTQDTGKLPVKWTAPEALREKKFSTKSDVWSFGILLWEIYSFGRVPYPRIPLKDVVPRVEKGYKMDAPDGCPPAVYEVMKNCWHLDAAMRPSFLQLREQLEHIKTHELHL

For `CC(C)n1cc(-c2cc(-c3ccc(CN4CCOCC4)cc3)cnc2N)nn1`, which inhibition [1] is on record?
Its inhibition is 25.1%.

And the inhibition [2]?
Its inhibition is 25.1%.

What about the inhibition [3] of the same molecule?
Its inhibition is 0%.

And the inhibition [4]?
The inhibition was 14.4%.

And the inhibition [5]?
The inhibition was -1.1%.

And the inhibition [6]?
The inhibition was 5.5%.

And the inhibition [7]?
The inhibition was 1.5%.

What about the inhibition [8] of the same molecule?
Its inhibition is -9.6%.

And the inhibition [9]?
The inhibition was -0.4%.

And the inhibition [10]?
Its inhibition is 24.7%.

And the inhibition [11]?
The inhibition was 11.8%.

What about the inhibition [12] of the same molecule?
Its inhibition is 21.9%.

And the inhibition [13]?
Its inhibition is -5.6%.

And the inhibition [14]?
Its inhibition is 26.2%.

What about the inhibition [15] of the same molecule?
Its inhibition is -8.4%.

And the inhibition [16]?
Its inhibition is 15.9%.
